Test results reported in PMC5988692, “AZ304, a novel dual BRAF inhibitor, exerts anti-tumour effects in colorectal cancer independently of BRAF genetic status” (British Journal of Cancer, 2018).

Assays:
Assay in all cases: Cell proliferation assay (cell panel, MTS)
Format in all cases: cell-based
A2058 = settings: Homo sapiens, 72 h; A2058, Melanoma, BRAF V600E HT, RAS WT, 3 days
Experimental: (§1) The proliferation assays against a cell panel were performed as described in ref.[18] Briefly, the cells were treated with DMSO or multiple concentrations of AZ304 for 3 days. The cell growth was determined using the CellTiter 96 Aqueous One Cell Proliferation Assay (Promega, Madison, WI). […] The assays were done in triplicate across different plates.
(§2) Anti-proliferative activity of AZ304 against a panel of cell lines with different BRAF and RAS genetic status. […] Cell growth was determined by MTS assay.

A375pgp = settings: Homo sapiens, 72 h, Melanoma, BRAF V600E HM, RAS WT, 3 days
Experimental: as §1, §2

A375 = settings: Homo sapiens, A-375, 72 h; A375, Melanoma, BRAF V600E HM, RAS WT, 3 days
Experimental: as §1, §2

CHL-1 = settings: Homo sapiens, 72 h; CHL-1, Melanoma, BRAF WT, RAS WT, 3 days
Experimental: as §1, §2

COLO205 = settings: Homo sapiens, COLO 205, 72 h; COLO205, Colon, BRAF V600E HT, RAS WT, 3 days
Experimental: as §1, §2

Calu-6 = settings: Homo sapiens, 72 h; Calu-6, Lung, BRAF WT, KRAS MT, 3 days
Experimental: as §1, §2

DU145 = settings: Homo sapiens, DU-145, 72 h; DU145, Prostate, BRAF WT, RAS WT, 3 days
Experimental: as §1, §2

HCT116 = settings: Homo sapiens, HCT-116, 72 h; HCT116, Colon, BRAF WT, KRAS MT, 3 days
Experimental: as §1, §2

JVM-3 = settings: Homo sapiens, 72 h; JVM-3, Lymphoma, BRAF K601N, RAS WT, 3 days
Experimental: as §1, §2

L-363 = settings: Homo sapiens, 72 h; L-363, Leukemia, BRAF WT, NRAS MT, 3 days
Experimental: as §1, §2

MC-F7/mdr+ = settings: Homo sapiens, MCF7, 72 h, Breast, BRAF WT, RAS WT, 3 days
Experimental: as §1, §2

MC-F7 = settings: Homo sapiens, MCF7, 72 h; MC-F7, Breast, BRAF WT, RAS WT, 3 days
Experimental: as §1, §2

MDA-MB-468 = settings: Homo sapiens, 72 h; MDA-MB-468, Breast, BRAF WT, RAS WT, 3 days
Experimental: as §1, §2

MIAPaCa-2 = settings: Homo sapiens, MIA PaCa-2, 72 h; MIAPaCa-2, Pancreas, BRAF WT, KRAS MT, 3 days
Experimental: as §1, §2

NCI-H23 = settings: Homo sapiens, 72 h; NCI-H23, Lung, BRAF WT, KRAS MT, 3 days
Experimental: as §1, §2

NCI-H460 = settings: Homo sapiens, 72 h; NCI-H460, Lung, BRAF WT, KRAS MT, 3 days
Experimental: as §1, §2

RPMI-8226 = settings: Homo sapiens, RPMI-8226, 72 h; BRAF WT, KRAS MT, 3 days
Experimental: as §1, §2

SK-BR-3 = settings: Homo sapiens, 72 h; SK-BR-3, Breast, BRAF WT, RAS WT, 3 days
Experimental: as §1, §2

SK-MEL-24 = settings: Homo sapiens, 72 h; SK-MEL-24, Melanoma, BRAF V600E, RAS WT, 3 days
Experimental: as §1, §2

SK-MEL-28 = settings: Homo sapiens, 72 h; SK-MEL-28, Melanoma, BRAF V600E, RAS WT, 3 days
Experimental: as §1, §2

SK-MEL-2 = settings: Homo sapiens, 72 h; SK-MEL-2, Melanoma, BRAF WT, NRAS MT, 3 days
Experimental: as §1, §2

SK-MEL-31 = settings: Homo sapiens, 72 h; SK-MEL-31, Melanoma, BRAF WT, RAS WT, 3 days
Experimental: as §1, §2

SK-OV3 = settings: Homo sapiens, SK-OV-3, 72 h; SK-OV3, Ovary, BRAF WT, RAS WT, 3 days
Experimental: as §1, §2

SW620 = settings: Homo sapiens, SW-620, 72 h; SW620, Colon, BRAF WT, KRAS MT, 3 days
Experimental: as §1, §2

U937 = settings: Homo sapiens, U-937, 72 h; U937, Lymphoma, BRAF WT, RAS WT, 3 days
Experimental: as §1, §2

## COc1ccc2c(Nc3cc(NC(=O)c4cccc(C(C)(C)C#N)c4)ccc3C)ncnc2c1 [AZ304]
A2058
  GI50: 3.82 µM
A375pgp
  GI50: 0.43 µM
A375
  GI50: 0.23 µM
CHL-1
  GI50: 8.27 µM
COLO205
  GI50: 0.28 µM
Calu-6
  GI50: 5.51 µM
DU145
  GI50: 11.7 µM
HCT116
  GI50: 2.74 µM
JVM-3
  GI50: 1.68 µM
L-363
  GI50: 7.02 µM
MC-F7/mdr+
  GI50: 7.63 µM
MC-F7
  GI50: 10.1 µM
MDA-MB-468
  GI50: 8.83 µM
MIAPaCa-2
  GI50: 1.16 µM
NCI-H23
  GI50: 3.99 µM
NCI-H460
  GI50: 8.56 µM
RPMI-8226
  GI50: 5.37 µM
SK-BR-3
  GI50: 11.6 µM
SK-MEL-24
  GI50: 0.08 µM
SK-MEL-28
  GI50: 0.5 µM
SK-MEL-2
  GI50: 3.91 µM
SK-MEL-31
  GI50: 0.43 µM
SK-OV3
  GI50: 6.18 µM
SW620
  GI50: 2.78 µM
U937
  GI50: 9.37 µM
